Reference: publication PMC4010497, “Synthesis and Evaluation of Fluorine-Substituted Phenyl Acetate Derivatives as Ultra-Short Recovery Sedative/Hypnotic Agents” (PLoS ONE, 2014)
Where two headings read alike, the source gives them in different places.

Legend:
[1] = molecular target: T1, human GABAA receptor α1, β2 and γ2 (CHO-K1 cells) (Homo sapiens, UniProt P14867+P18507+P47870); experiment: cell-based; conditions: GABAA (α1β2γ2) CHO-K1 cell, patch clamp; read-out: EC50, potentiation of EC20 muscimol evoked chloride currents
T1 construct: expressed in transfected cells; host or cells: CHO-K1 cells, stably transfected
Description: Chinese hamster ovary (CHO)-K1 cells transfected stably with human GABAA receptor α1, β2 and γ2 subunit cDNAs were used. The cells were plated onto collagen-coated 35-mm cell culture dishes at low density for 1–7 days before recording. Test solutions were prepared in the extracellular solution on the day the patch-clamp assay was performed. The intracellular solution consisted of 22 mM KCl, 110 mM K-aspartate, 8 mM NaCl, 1 mM MgCl2, 1 mM CaCl2, 10 mM ethylene glycol tetraacetic acid, 5 mM Na2ATP, 10 mM hydroxyethyl piperazineethanesulfonic acid (HEPES) (adjusted to pH 7.2 using KOH), while the extracellular solution contained 145 mM NaCl, 4 mM KCl, 2 mM CaCl2, 2 mM MgCl2, 10 mM HEPES (adjusted to pH 7.4 using NaOH). The assay was performed at room temperature. Cells were maintained at −70 mV and the potentiation effect was assessed by co-application of the test compound with EC20 of muscimol after the cell was pre-incubated with the test compound for 45 s. GABA EC20 measured individually in each cell. The amplitude of the Cl− current in response to muscimol and/or test compound was determined. The response to the co-application of the test compound and muscimol was normalized to the control muscimol response as a percentage of the control. A potentiation effect was indicated by a value >100% of the control response. EC50 values were calculated using the four parameter logistic equation, where E was the amplitude of the muscimol-induced current in the presence of the anesthetic at concentration [A], EMAX was the amplitude of the response in the presence of a maximally effective concentration of the anesthetic, EC50 was the concentration of anesthetic producing a half-maximal enhancement of the muscimol-induced response and nH was the Hill coefficient. [drawing 1]

rat [2] = format: in vivo; conditions: for Duration of LORR / Time to walk / time to behavioral recovery: 2× HD50 dose, mean ± SD; for HD50: IV, 95% confidence limits
Description: (§1) All tests were performed during the light period. Groups of mice, rats and rabbits were injected intravenously (lateral tail vein) over 10 s with each dose of test compound, placed in separate boxes to reduce external stimuli and assessed for the loss of righting reflex. Dosing was performed using mg/kg scheme. A set of dose levels was chosen, and depending on whether the loss of righting reflex was observed, extra doses were introduced to provide data for the loss of righting reflex over a narrow dose range to allow potency calculations. From the percentage of mice, rats and rabbits in each group showing loss of righting reflex for ≥30 s, a probit analysis (SAS Institute) was performed to obtain an HD50 for each compound with 95% confidence limits.
(§2) Immediately following the injection, the mice, rats and rabbits were tested for loss of righting reflex. […] Once a loss was observed, the interval between the loss of righting reflex and the return to righting reflex was recorded. The anesthetized animals recovered righting reflexes spontaneously. To compare the duration of LORR of each compound at equipotent doses, groups of mice, rats and rabbits were injected with each compound at 2× HD50 over 10 s.
(§3) Time to walk was the time required after righting before mice and rabbits walked from the center to the periphery of a 30-cm diameter dise.
(§4) The rotarod test was conducted to evaluate the recovery to the motor coordination. Before the LORR test, mice were trained for 2 consecutive days. Trained mice could maintain their balance on rod for more than 2 mins. After the mice could walk from the center to the periphery of a 30-cm diameter dise, they were put on the rotarod. Mice were classified as behavioral recovery when, on being placed on the rod, they could maintain their balance for 20 s. The time to behavioral recovery was the time required after mice walked from the centre to the periphery of a 30-cm diameter disc before they could maintain their balance on rod for 20 s.

mice [3] = experiment: animal or person; format: in vivo; conditions: mice; for ED50: Mus musculus, IV over 10 s, 95% confidence limits, read-out: HD50 (the source's name); for Time to walk: 2× HD50; for time to behavioral recovery: 2× HD50, rotarod; for Duration of LORR: IV 2× HD50, mean ± SD (n = 10); for Onset time: IV, mean ± SD (n = 10)
Description: as §1, §2, §3, §4

rabbits [4] = experiment: Therapeutic index (LD50/HD50) in rabbits; format: in vivo, rabbit
Description: (§5) The LD50 was determined in mice, rats, and rabbits and the TI was calculated as LD50/HD50.

[5] = Octanol:water partition coefficient; format: physicochemical; conditions: water buffered with 10 mm Tris (pH 7.4)
Description: One mg of each hypnotic was added to 10 ml of water buffered with 10 mm Tris (pH 7.4) and 1 ml of octanol. The mixture was stirred overnight and then centrifuged to fully separate the organic and aqueous phases. The relative hypnotic concentration in each phase (i.e., the partition coefficient) was determined by high-performance liquid chromatography as described for blood.

rat [6] = experiment: Therapeutic index (LD50/HD50) in rat; format: in vivo
Description: as §5

GABAA receptor = experiment: GABAA radioligand binding assay ([3H]EBOB); conditions: 50 µM compound, 0.5 nM [3H]EBOB, rat frontoparietal cortex
Description: All the new compounds were dissolved in 5% DMSO.
Specific binding was determined in the presence of compounds.
Membrane suspensions were thawed and centrifuged in incubation buffer at 10,000×g for 10 min and washed by a similar centrifugation. For displacement studies, membrane suspensions (5 mg original wet wt./ml) were incubated with 0.5 nM [^3H]EBOB ([…], Perkin Elmer Life Sciences, Boston, MA, USA) in the absence or presence of 50 µM of new compounds or reference drug for 2 h at 25°C. Nonspecific binding was determined in the presence of 10 µM Bicuculline. Bicuculline and picrotoxin were frequently used to determine the nonspecific binding when [3H]EBOB as radioligand [17]. Triplicate 1 ml samples were filtered on Whatman GF/B filters under vacuum with a Brandel Harvester and washed with 3×3 ml ice-cold buffer.

rabbits [7] = experiment: Hypnotic potency and recovery after IV bolus in rabbits; format: in vivo, rabbit; conditions: for Duration of LORR / Time to walk: 2× HD50 dose, mean ± SD; for HD50: IV, 95% confidence limits
Description: as §1, with “calculations.” for “calculations. From the percentage of mice, rats and rabbits in each group showing loss of righting reflex for ≥30 s, a probit analysis (SAS Institute) was performed to obtain an HD50 for each compound with 95% confidence limits.”
as §2, with “The anesthetized animals recovered righting reflexes spontaneously.” left out
as §3

rabbits [8] = experiment: Hypnosis in response to IV infusion in rabbits; format: in vivo, rabbit; conditions: for time to walk after infusion: 20-min IV infusion; for duration of LORR after cessation of infusion: 20-min IV infusion at half the HD50 per min after 2× HD50 induction
Description: Induction of hypnosis in rabbits was achieved using 2× HD50 dose of test compound, and immediately after induction, infusion via the tail vein was commenced at half the HD50 dosage per min. the infusion rate was maintained for 20 min or 1 h or 3 h later. The depth of hypnosis was monitored by the magnitude of a withdrawal reflex to intermittent paw pinch provided by a pair of forceps.

mice [9] = experiment: in vivo; conditions: LD50/HD50
Description: as §5

in vivo = conditions: mouse, in vivo; mice, 95% confidence limits
Description: as §5

[10] = In vitro metabolic half-life in monkey whole blood; format: in vitro ADME; conditions: male, Cynomolgus monkey (n = 3), 37°C, read-out: Mean t1/2 Value
Description: (§6) Human whole blood stability experiments were conducted in whole blood from four human donors (male, 18–25 years). Single experiments were conducted with pooled blood from Sprague-Dawley rats (male, 8 weeks, n = 3), New Zealand White rabbits (male, 8–10 weeks, n = 3), Beagle dogs (male, 2–3 years, n = 3) and Cynomolgus monkeys (male, 3–4 years, n = 3). All the blood samples were provided by Xuzhou Medical College. A 1.35-ml aliquot of blood was warmed at 37°C for 5 min and hypnotic (from a 40 mM stock in DMSO solution) was added to a final concentration of 200 µM. After the specified incubation time, a 150-µl sample was removed and the metabolic reaction was quenched using 150-µl acetonitrile. Zero time-point samples were prepared by adding 150-µl acetonitrile (using a 4 mM stock in DMSO) to 150-µl blood before addition of the hypnotic. The quenched samples were centrifuged, and the supernatant was separated and stored at −20°C until analyzed. Hypnotic concentrations in thawed samples were determined by high-performance liquid chromatography using a 3-µm phenyl 4.6×50-mm C-A-25, ACE column with the UV detector set at 240 nm. […] The lower limit of quantitation of this assay is 3 µM and the accuracy within 15% at 10 µM. The metabolic half-lives were quantified from the incubation time-dependent change in drug concentration.

[11] = molecular target: T1, human GABAA receptor α1, β2 and γ2 (CHO-K1 cells); design: method as in PMID 22531340; conditions: GABAA receptor electrophysiology; cited from earlier work
[12] = In vitro metabolic half-life in rabbit whole blood; format: in vitro ADME; conditions: male, New Zealand White rabbit (n = 3), 37°C, read-out: Mean t1/2 Value
Description: as §6

[13] = In vitro metabolic half-life in dog whole blood; format: in vitro ADME, Beagle dog; conditions: male; whole blood, Beagle dog (n = 3), 37°C, 200 µM; read-out: Mean t1/2 Value
Description: Human whole blood stability experiments were conducted in whole blood from four human donors (male, 18–25 years). Single experiments were conducted with pooled blood from Sprague-Dawley rats (male, 8 weeks, n = 3), New Zealand White rabbits (male, 8–10 weeks, n = 3), Beagle dogs (male, 2–3 years, n = 3) and Cynomolgus monkeys (male, 3–4 years, n = 3). All the blood samples were provided by Xuzhou Medical College. A 1.35-ml aliquot of blood was warmed at 37°C for 5 min and hypnotic (from a 40 mM stock in DMSO solution) was added to a final concentration of 200 µM. After the specified incubation time, a 150-µl sample was removed and the metabolic reaction was quenched using 150-µl acetonitrile. Zero time-point samples were prepared by adding 150-µl acetonitrile (using a 4 mM stock in DMSO) to 150-µl blood before addition of the hypnotic. The quenched samples were centrifuged, and the supernatant was separated and stored at −20°C until analyzed. Hypnotic concentrations in thawed samples were determined by high-performance liquid chromatography using a 3-µm phenyl 4.6×50-mm C-A-25, ACE column with the UV detector set at 240 nm. A linear gradient 20–45% acetonitrile in water with 0.05% trifluoroacetic acid was run for more than 20 min at a flow rate of 1 ml/min. The lower limit of quantitation of this assay is 3 µM and the accuracy within 15% at 10 µM. The metabolic half-lives were quantified from the incubation time-dependent change in drug concentration.

[14] = In vitro metabolic half-life in rat whole blood; format: in vitro ADME; conditions: male, Sprague-Dawley Rat (n = 3), 37°C, read-out: Mean t1/2 Value
Description: as §6

[15] = In vitro metabolic half-life in human whole blood; format: in vitro ADME; conditions: male, Human (n = 4), 37°C, read-out: Mean t1/2 Value
Description: as §6

T1 sequence (P14867 28-456): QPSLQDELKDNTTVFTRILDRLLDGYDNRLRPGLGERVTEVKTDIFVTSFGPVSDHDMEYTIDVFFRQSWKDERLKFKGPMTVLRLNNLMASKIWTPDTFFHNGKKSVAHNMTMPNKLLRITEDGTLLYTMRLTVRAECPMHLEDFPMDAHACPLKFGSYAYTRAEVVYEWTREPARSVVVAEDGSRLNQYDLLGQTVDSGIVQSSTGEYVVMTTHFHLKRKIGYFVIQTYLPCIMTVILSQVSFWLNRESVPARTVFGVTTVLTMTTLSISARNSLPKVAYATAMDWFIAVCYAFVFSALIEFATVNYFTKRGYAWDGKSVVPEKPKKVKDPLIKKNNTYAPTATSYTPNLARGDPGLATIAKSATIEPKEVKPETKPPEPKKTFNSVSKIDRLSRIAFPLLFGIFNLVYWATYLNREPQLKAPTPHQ
T1 sequence (P47870 25-512 limits assumed): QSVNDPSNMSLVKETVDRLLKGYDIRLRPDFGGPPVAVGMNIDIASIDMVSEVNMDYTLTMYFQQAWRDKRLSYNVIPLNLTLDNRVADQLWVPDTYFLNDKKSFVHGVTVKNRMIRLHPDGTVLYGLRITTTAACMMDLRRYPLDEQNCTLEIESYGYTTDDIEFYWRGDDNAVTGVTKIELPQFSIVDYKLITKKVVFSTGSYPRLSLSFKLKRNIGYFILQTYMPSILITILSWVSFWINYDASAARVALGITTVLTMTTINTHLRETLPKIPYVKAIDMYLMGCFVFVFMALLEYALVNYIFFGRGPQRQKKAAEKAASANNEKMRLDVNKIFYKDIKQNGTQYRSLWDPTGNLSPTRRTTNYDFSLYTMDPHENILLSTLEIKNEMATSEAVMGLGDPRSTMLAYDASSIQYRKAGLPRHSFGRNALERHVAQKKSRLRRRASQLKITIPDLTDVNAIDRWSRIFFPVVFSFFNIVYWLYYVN
T1 sequence (P18507 40-475): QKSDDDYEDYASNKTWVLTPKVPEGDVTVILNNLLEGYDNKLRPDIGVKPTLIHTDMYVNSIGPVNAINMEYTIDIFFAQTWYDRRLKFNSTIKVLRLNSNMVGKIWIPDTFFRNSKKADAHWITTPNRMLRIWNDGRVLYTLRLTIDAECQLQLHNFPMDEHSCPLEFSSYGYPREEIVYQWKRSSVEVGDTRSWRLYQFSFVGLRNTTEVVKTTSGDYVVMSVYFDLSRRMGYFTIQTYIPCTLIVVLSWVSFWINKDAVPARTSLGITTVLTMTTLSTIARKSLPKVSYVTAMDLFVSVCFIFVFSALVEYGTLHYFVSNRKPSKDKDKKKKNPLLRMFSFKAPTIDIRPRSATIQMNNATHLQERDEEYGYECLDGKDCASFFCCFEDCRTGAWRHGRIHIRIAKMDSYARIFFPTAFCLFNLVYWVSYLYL

Compound | Duration of LORR (rat [2]) | Time to walk (rat [2]) | time to behavioral recovery (rat [2]) | HD50 (rat [2]) | ED50 (mice [3]) | Time to walk (mice [3]) | time to behavioral recovery (mice [3]) | Duration of LORR (mice [3]) | Onset time (mice [3]) | TI (rabbits [4]) | Octanol:Water Partition (Coefficient ± SD) [5] | TI (rat [6]) | GABAA binding (50 µmol) (Mean ± SD), percentage of inhibition (GABAA receptor) | Duration of LORR (rabbits [7]) | Time to walk (rabbits [7]) | HD50 (rabbits [7]) | time to walk after infusion (rabbits [8]) | duration of LORR after cessation of infusion (rabbits [8]) | TI (mice [9]) | LD50 (in vivo) | further results
CCCOC(=O)Cc1ccc(OCC(=O)N(CC)CC)c(OC)c1 [Propanidid] | 93.3 ± 16.1 s | 58.7 ± 18.8 s | 79.9 ± 34.6 s | 8.4 (7.8∼10.4) mg/kg | 20.9 mg/kg | 56.3 ± 23.5 s | 83.9 ± 17.1 s | 89.6 ± 18.2 s | 6.7 ± 0.5 s | 14.7 | 394±40 | 9.6 | 70.2±5.8% | 265.4 ± 44.2 s | 124.5 ± 24.8 s | 5.1 (4.7∼5.7) mg/kg | 70.2 ± 14.9 s | 246.6 ± 65.7 s | 5.6 | 119 mg/kg | EC50 [1]: 25.2 µM
CCCOC(=O)Cc1ccc(OCC(=O)N(CC)CC)c(OCC)c1 [AZD3043, reference compound] | 74.2 ± 10.5 s | 38.4 ± 9.6 s | 56.9 ± 12.5 s | 8.2 (7.7∼9.8) mg/kg | 17.6 mg/kg | 36.7 ± 6.4 s | 65.5 ± 14.1 s | 63.8 ± 8.5 s | 5.6 ± 1.2 s | 15.6 | 466±54 | 10.1 | 83.2±7.4% | 221.6 ± 38.8 s | 89.6 ± 7.6 s | 4.8 (4.6∼5.6) mg/kg | 46.3 ± 11.2 s | 135.6 ± 66.7 s | 6.0 | 98.4 mg/kg | half-life at 200 µM [10]: 56.7 ± 11.9 min; EC50 [11]: 36 µM; half-life at 200 µM [12]: 14.8 ± 3.3 min; half-life at 200 µM [13]: > 60 min; half-life at 200 µM [14]: 0.6 ± 0.1 min; half-life at 200 µM [15]: 28.6 ± 6.2 min
